Measurements: patent publication US7141592B2, “Substituted oxadiazolidinediones” (Wyeth, priority 2003, dated 2006)

What follows are compounds tested against T1, recombinant human plasminogen activator inhibitor-1 (PAI-1) (Homo sapiens, UniProt P05121) (assay: Primary screen for the PAI-1 inhibition (chromogenic tPA activity, Spectrozyme-tPA)). Conditions: compound at 100 μM.
T1 construct: purchased Molecular Innovations, Royal Oak, Mich
Assay type: biochemical
Method: Test compounds are dissolved in DMSO at a final concentration of 10 mM, then diluted 100× in physiologic buffer. The inhibitory assay is initiated by the addition of the substituted oxadiazolidinedione (1–100 μM final concentration, maximun DMSO concentration of 0.2%) in a pH 6.6 buffer containing 140 nM recombinant human plasminogen activator inhibitor-1 (PAI-1; Molecular Innovations, Royal Oak, Mich.). Following a 1 hour incubation at room temperature, 70 nM of recombinant human tissue plasminogen activator (tPA) is added, and the combination of the substituted oxadiazolidinedione, PAI-1 and tPA is incubated for an additional 30 minutes. Following the second incubation, Spectrozyme-tPA (American Diagnostica, Greenwich, Conn.), a chromogenic substrate for tPA, is added and absorbance read at 405 nm at 0 and 60 minutes. Relative PAI-1 inhibition is equal to the residual tPA activity in the presence of the test compound and PAI-1. Control treatments include the complete inhibition of tPA by PAI-1 at the molar ratio employed (2:1), and the absence of any effect of the substituted oxadiazolidinedione on tPA alone.

T1 sequence (P05121 24-402): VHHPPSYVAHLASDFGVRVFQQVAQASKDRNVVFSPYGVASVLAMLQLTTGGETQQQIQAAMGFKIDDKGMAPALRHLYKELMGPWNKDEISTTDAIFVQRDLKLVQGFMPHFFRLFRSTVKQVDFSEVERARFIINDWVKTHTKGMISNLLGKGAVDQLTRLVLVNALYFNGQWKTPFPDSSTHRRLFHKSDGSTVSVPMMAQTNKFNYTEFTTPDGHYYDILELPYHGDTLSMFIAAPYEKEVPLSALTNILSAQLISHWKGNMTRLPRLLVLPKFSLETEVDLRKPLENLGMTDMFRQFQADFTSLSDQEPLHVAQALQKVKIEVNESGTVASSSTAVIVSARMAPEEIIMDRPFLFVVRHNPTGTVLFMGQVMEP

Compound | inhibition at 100 µM [%]
C=CCn1cc(Cn2oc(=O)[nH]c2=O)c2cc(OCc3ccc(Cl)c(Cl)c3)ccc21 [Compound 34, 2-({1-allyl-5-[(3,4-dichlorobenzyl)oxy]-1H-indol-3-yl}methyl)-1,2,4-oxadiazolidine-3,5-dione] | 87
O=c1[nH]c(=O)n(Cc2cccc(-c3cccc(OCc4ccccc4Cl)c3)c2)o1 [Compound 36, 2-({3′-[(2-chlorobenzyl)oxy]-1,1′-biphenyl-3-yl}methyl)-1,2,4-oxadiazolidine-3,5-dione] | 100
O=c1[nH]c(=O)n(Cc2cccc(-c3cccc(OCc4cc(C(F)(F)F)cc(C(F)(F)F)c4)c3)c2)o1 [Compound 38, 2-[(3′-{[3,5-bis(trifluoromethyl)benzyl]oxy}-1,1′-biphenyl-3-yl)methyl]-1,2,4-oxadiazolidine-3,5-dione] | 69
O=c1[nH]c(=O)n(Cc2cccc(-c3cccc(OCc4cccc(Cl)c4)c3)c2)o1 [Compound 39, 2-({3′-[(3-chlorobenzyl)oxy]-1,1′-biphenyl-3-yl}methyl)-1,2,4-oxadiazolidine-3,5-dione] | 99
O=c1[nH]c(=O)n(Cc2cccc(-c3cccc(OCc4ccccc4)c3)c2)o1 [Compound 40, 2-{[3′-(benzyloxy)-1,1′-biphenyl-3-yl]methyl}-1,2,4-oxadiazolidine-3,5-dione] | 96
O=c1[nH]c(=O)n(Cc2cccc(-c3cccc(OCc4ccc(Cl)cc4)c3)c2)o1 [Compound 42, 2-({3′-[(4-chlorobenzyl)oxy]-1,1′-biphenyl-3-yl}methyl)-1,2,4-oxadiazolidine-3,5-dione] | 100
O=c1[nH]c(=O)n(Cc2cccc(-c3cccc(OCc4ccc(Cl)c(Cl)c4)c3)c2)o1 [Compound 43, 2-({3′-[(3,4-dichlorobenzyl)oxy]-1,1′-biphenyl-3-yl}methyl)-1,2,4-oxadiazolidine-3,5-dione] | 100
O=c1[nH]c(=O)n(Cc2cccc(-c3cccc(OCc4ccc5ccccc5c4)c3)c2)o1 [Compound 44, 2-{[3′-(2-naphthylmethoxy)-1,1′-biphenyl-3-yl]methyl}-1,2,4-oxadiazolidine-3,5-dione] | 28
Cc1ccc(COc2cccc(-c3cccc(Cn4oc(=O)[nH]c4=O)c3)c2)cc1 [Compound 45, 2-({3′-[(4-methylbenzyl)oxy]-1,1′-biphenyl-3-yl}methyl)-1,2,4-oxadiazolidine-3,5-dione] | 94
Cc1cccc(COc2cccc(-c3cccc(Cn4oc(=O)[nH]c4=O)c3)c2)c1 [Compound 46, 2-({3′-[(3-methylbenzyl)oxy]-1,1′-biphenyl-3-yl}methyl)-1,2,4-oxadiazolidine-3,5-dione] | 80
O=c1[nH]c(=O)n(Cc2cccc(-c3cccc(OCc4c(Cl)cccc4Cl)c3)c2)o1 [Compound 47, 2-({3′-[(2,6-dichlorobenzyl)oxy]-1,1′-biphenyl-3-yl}methyl)-1,2,4-oxadiazolidine-3,5-dione] | 88
CC(C)(C)c1ccc(COc2cccc(-c3ccc(Cn4oc(=O)[nH]c4=O)cc3)c2)cc1 [Compound 53, 2-({3′-[(4-tert-butylbenzyl)oxy]-1,1′-biphenyl-4-yl}methyl)-1,2,4-oxadiazolidine-3,5-dione] | 60
O=c1[nH]c(=O)n(Cc2ccc(-c3cccc(OCc4ccc(Br)cc4)c3)cc2)o1 [Compound 54, 2-({3′-[(4-bromobenzyl)oxy]-1,1′-biphenyl-4-yl}methyl)-1,2,4-oxadiazolidine-3,5-dione] | 10
O=c1[nH]c(=O)n(Cc2ccc(-c3ccc(OCc4cccc(Br)c4)cc3)cc2)o1 [Compound 55, 2-({4′-[(3-bromobenzyl)oxy]-1,1′-biphenyl-4-yl}methyl)-1,2,4-oxadiazolidine-3,5-dione] | 41
O=c1[nH]c(=O)n(Cc2ccc(C#Cc3ccccc3)cc2)o1 [Compound 56, 2-[4-(phenylethynyl)benzyl]-1,2,4-oxadiazolidine-3,5-dione] | 65
CCCCC#Cc1ccc(Cn2oc(=O)[nH]c2=O)cc1 [Compound 57, 2-(4-hex-1-ynylbenzyl)-1,2,4-oxadiazolidine-3,5-dione] | 56
O=c1[nH]c(=O)n(Cc2cccc(C#Cc3ccccc3)c2)o1 [Compound 60, 2-[3-(phenylethynyl)benzyl]-1,2,4-oxadiazolidine-3,5-dione] | 38
O=c1[nH]c(=O)n(Cc2ccc(C#CCOc3cc(C(F)(F)F)cc(C(F)(F)F)c3)cc2)o1 [Compound 61, 2-(4-{3-[3,5-bis(trifluoromethyl)phenoxy]prop-1-ynyl}benzyl)-1,2,4-oxadiazolidine-3,5-dione] | 87

Compound | inhibition at 100 µM [%]
O=c1[nH]c(=O)n(Cc2ccc(C#CCOc3cc(Cl)cc(Cl)c3)cc2)o1 [Compound 62, 2-{4-[3-(3,5-dichlorophenoxy)prop-1-ynyl]benzyl}-1,2,4-oxadiazolidine-3,5-dione] | 82
O=c1[nH]c(=O)n(Cc2ccc(C#CCOc3cccc(Cl)c3)cc2)o1 [Compound 63, 2-{4-[3-(3-chlorophenoxy)prop-1-ynyl]benzyl}-1,2,4-oxadiazolidine-3,5-dione] | 85
CC(C)(C)c1ccc(OCC#Cc2cccc(Cn3oc(=O)[nH]c3=O)c2)cc1 [Compound 65, 2-{3-[3-(4-tert-butylphenoxy)prop-1-ynyl]benzyl}-1,2,4-oxadiazolidine-3,5-dione] | 77
O=c1[nH]c(=O)n(Cc2cccc(C#CCOc3ccc(Br)cc3)c2)o1 [Compound 66, 2-{3-[3-(4-bromophenoxy)prop-1-ynyl]benzyl}-1,2,4-oxadiazolidine-3,5-dione] | 85
O=c1[nH]c(=O)n(Cc2cccc(C#CCOc3cc(C(F)(F)F)cc(C(F)(F)F)c3)c2)o1 [Compound 67, 2-(3-{3-[3,5-bis(trifluoromethyl)phenoxy]prop-1-ynyl}benzyl)-1,2,4-oxadiazolidine-3,5-dione] | 84
O=c1[nH]c(=O)n(Cc2cccc(C#CCOc3cc(Cl)cc(Cl)c3)c2)o1 [Compound 68, 2-{3-[3-(3,5-dichlorophenoxy)prop-1-ynyl]benzyl}-1,2,4-oxadiazolidine-3,5-dione] | 93
O=c1[nH]c(=O)n(Cc2cccc(C#CCOc3cccc(Cl)c3)c2)o1 [Compound 69, 2-{3-[3-(3-chlorophenoxy)prop-1-ynyl]benzyl}-1,2,4-oxadiazolidine-3,5-dione] | 85
O=c1[nH]c(=O)n(Cc2cc(OCc3cccc(Cl)c3)cc(OCc3cccc(Cl)c3)c2)o1 [Compound 71, 2-{3,5-bis[(3-chlorobenzyl)oxy]benzyl}-1,2,4-oxadiazolidine-3,5-dione] | 85
O=c1[nH]c(=O)n(Cc2cc(OCc3ccc(C(F)(F)F)cc3)cc(OCc3ccc(C(F)(F)F)cc3)c2)o1 [Compound 72, 2-(3,5-bis{[4-(trifluoromethyl)benzyl]oxy}benzyl)-1,2,4-oxadiazolidine-3,5-dione] | 87
Cc1cccc(COc2cc(Cn3oc(=O)[nH]c3=O)cc(OCc3cccc(C)c3)c2)c1 [Compound 73, 2-{3,5-bis[(3-methylbenzyl)oxy]benzyl}-1,2,4-oxadiazolidine-3,5-dione] | 81
O=c1[nH]c(=O)n(Cc2cc(OCc3cccc(Br)c3)cc(OCc3cccc(Br)c3)c2)o1 [Compound 74, 2-{3,5-bis[(3-bromobenzyl)oxy]benzyl}-1,2,4-oxadiazolidine-3,5-dione] | 92
O=c1[nH]c(=O)n(Cc2cc(OCc3ccccc3Br)cc(OCc3ccccc3Br)c2)o1 [Compound 75, 2-{3,5-bis[(2-bromobenzyl)oxy]benzyl}-1,2,4-oxadiazolidine-3,5-dione] | 91
COc1cc(Cn2oc(=O)[nH]c2=O)cc(OCc2ccc(C(F)(F)F)cc2)c1OCc1ccc(C(F)(F)F)cc1 [Compound 76, 2-(3-methoxy-4,5-bis{[4-(trifluoromethyl)benzyl]oxy}benzyl)-1,2,4-oxadiazolidine-3,5-dione] | 95
COc1cc(Cn2oc(=O)[nH]c2=O)cc(OCc2cccc(C)c2)c1OCc1cccc(C)c1 [Compound 77, 2-{3-methoxy-4,5-bis[(3-methylbenzyl)oxy]benzyl}-1,2,4-oxadiazolidine-3,5-dione] | 88
COc1cc(Cn2oc(=O)[nH]c2=O)cc(OCc2cccc(Cl)c2)c1OCc1cccc(Cl)c1 [Compound 78, 2-{3,4-bis[(3-chlorobenzyl)oxy]-5-methoxybenzyl}-1,2,4-oxadiazolidine-3,5-dione] | 91
COc1cc(Cn2oc(=O)[nH]c2=O)cc(OCc2cccc(Br)c2)c1OCc1cccc(Br)c1 [Compound 79, 2-{3,4-bis[(3-bromobenzyl)oxy]-5-methoxybenzyl}-1,2,4-oxadiazolidine-3,5-dione] | 87
COc1cc(Cn2oc(=O)[nH]c2=O)cc(OCc2ccccc2Br)c1OCc1ccccc1Br [Compound 80, 2-{3,4-bis[(2-bromobenzyl)oxy]-5-methoxybenzyl}-1,2,4-oxadiazolidine-3,5-dione] | 89
O=c1[nH]c(=O)n(Cc2cccc(OCc3ccc(C(F)(F)F)cc3)c2OCc2ccc(C(F)(F)F)cc2)o1 [Compound 81, 2-(2,3-bis{[4-(trifluoromethyl)benzyl]oxy}benzyl)-1,2,4-oxadiazolidine-3,5-dione] | 92
